Target: human PHD2 (Homo sapiens (Human), UniProt Q9GZT9)
Assay: Test 2: human PHD2 inhibitory activity, fluorescence polarization assay of HIF-1α peptide proline hydroxylation
Format: biochemical
Conditions: for inhibition at 1 µM: read-out: Percent inhibition (% at 1 μM); for IC50: human PHD2, fluorescence polarization assay, 20-min incubation at 30° C.
Description: (1) Expression and Preparation of Human PHD2
A registered sequence of human PHD2 (NM_022051) was introduced into pcDNA3.1/Hygro(+) vector (Invitrogen), and the sequence was verified. […] The suspension of disrupted cells was centrifuged at 4° C. and 100,000×g for 30 minutes and the supernatant was recovered as a cell lysate.
(2) Measurement of Human PHD2 Inhibitory Activity
The activity of human PHD2 enzyme was measured with a substrate which is a 19-residue partial peptide based on the sequence of HIF-1α; specifically, the hydroxylation of a proline residue in the peptide was measured by FP (Fluorescence Polarization).
A test compound and the substrate solution were preliminarily added onto 384-well plates and reaction was initiated by adding a human PHD2 enzyme solution (40 ng/well). After 20-min incubation at 30° C., an EDTA-containing quench solution was added and the amount of the proline residues hydroxylated via binding to an added HIF—OH antibody solution was quantified by fluorescence polarization.
The fluorescence polarization of each well was measured and the human PHD2 inhibitory activity of each test compound was calculated on the basis of the values for the test compound-free group.

[1] = test compound's concentration 1 μM, Test 2, fluorescence polarization assay

human PHD2, sequence (Q9GZT9 whole entry): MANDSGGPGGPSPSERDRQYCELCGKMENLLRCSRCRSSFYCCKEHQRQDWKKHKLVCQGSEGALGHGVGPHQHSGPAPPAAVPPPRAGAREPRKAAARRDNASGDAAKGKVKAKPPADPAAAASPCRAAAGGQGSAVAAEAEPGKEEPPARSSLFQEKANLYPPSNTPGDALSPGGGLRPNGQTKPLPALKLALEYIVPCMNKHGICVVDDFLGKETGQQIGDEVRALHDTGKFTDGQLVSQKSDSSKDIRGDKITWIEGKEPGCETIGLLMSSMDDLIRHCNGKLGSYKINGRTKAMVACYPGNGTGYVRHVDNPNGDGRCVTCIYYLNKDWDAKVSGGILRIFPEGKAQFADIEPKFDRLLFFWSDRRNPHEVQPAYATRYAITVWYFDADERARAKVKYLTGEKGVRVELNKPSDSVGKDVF

Compound	inhibition at 1 µM [1] [%]	IC50 [nM]	Percent inhibition (% at 1 μM) [1] [%]
Cc1cc(CN2CCC(O)=C(C(=O)NCC(=O)O)C2=O)ccc1OCc1ccccc1 [Ex. 1-381]	92	–	–
O=C(O)CNC(=O)C1=C(O)CCN(Cc2ccc(OCCC(F)(F)F)cc2)C1=O [Ex. 1-382]	83	–	–
Cc1cc(CN2CCC(O)=C(C(=O)NCC(=O)O)C2=O)ccc1OCCC(F)(F)F [Ex. 1-383]	83	–	–
O=C(O)CNC(=O)C1=C(O)CCN(Cc2ccc(OCCC(F)(F)F)c(F)c2)C1=O [Ex. 1-384]	82	–	–
Cc1ccc(Oc2cnc(CN3CCC(O)=C(C(=O)NCC(=O)O)C3=O)cn2)cc1 [Ex. 1-385]	93	54	–
Cc1ccc(Oc2ccc(CN3CCC(O)=C(C(=O)NCC(=O)O)C3=O)cc2)cc1C [Ex. 1-386]	92	48	–
Cc1ccc(COc2ccc(CN3CCC(O)=C(C(=O)NCC(=O)O)C3=O)cc2F)cc1 [Ex. 1-387]	93	–	–
Cc1cc(CN2CCC(O)=C(C(=O)NCC(=O)O)C2=O)ccc1OCc1ccc(F)cc1 [Ex. 1-388]	92	–	–
Cc1cc(CN2CCC(O)=C(C(=O)NCC(=O)O)C2=O)ccc1OCc1ccc(OC(F)(F)F)cc1 [Ex. 1-389]	69	–	–
O=C(O)CNC(=O)C1=C(O)CCN(CC2CCC(Oc3ccccc3)CC2)C1=O (stereo not drawn) [Ex. 1-390]	89	–	–
O=C(O)CNC(=O)C1=C(O)CCN(CC2CCC(Oc3ccccc3)CC2)C1=O (stereo not drawn) [Ex. 1-391]	–	–	82
Cc1ccc(Oc2ncc(CN3CCC(O)=C(C(=O)NCC(=O)O)C3=O)cc2Cl)cc1 [Ex. 1-392]	98	26	–
Cc1ccc(Oc2ncc(CN3CCC(O)=C(C(=O)NCC(=O)O)C3=O)cc2F)cc1 [Ex. 1-393]	98	32	–
Cc1nc(COc2ccc(CN3CCC(O)=C(C(=O)NCC(=O)O)C3=O)cc2Cl)c(C)o1 [Ex. 1-394]	83	–	–
O=C(O)CNC(=O)C1=C(O)CCN(C[C@@H]2CC[C@@H](c3ccccc3)C2)C1=O [Ex. 1-395]	90	–	–
CC1(COc2ccc(CN3CCC(O)=C(C(=O)NCC(=O)O)C3=O)cn2)CC1 [Ex. 1-396]	89	–	–
Cc1ccc(COc2ccc(CN3CCC(O)=C(C(=O)NCC(=O)O)C3=O)cc2)cn1 [Ex. 1-398]	91	–	–
O=C(O)CNC(=O)C1=C(O)CCN(CC2(c3ccccc3)CC2)C1=O [Ex. 1-399]	55	–	–
Cc1ncccc1COc1ccc(CN2CCC(O)=C(C(=O)NCC(=O)O)C2=O)cc1 [Ex. 1-401]	90	–	–
O=C(O)CNC(=O)C1=C(O)CCN(C[C@H]2CC[C@H](Oc3ccc(F)cc3)CC2)C1=O [Ex. 1-402]	109	–	–
O=C(O)CNC(=O)C1=C(O)CCN(C[C@H]2CC[C@H](Oc3ccc(C(F)(F)F)cc3)CC2)C1=O [Ex. 1-403]	102	–	–
O=C(O)CNC(=O)C1=C(O)CCN(Cc2ccc(Oc3ccc(C4CC4)cn3)cc2)C1=O [Ex. 1-404]	96	56	–
O=C(O)CNC(=O)C1=C(O)CCN(Cc2ccc(OCc3ccc(Cl)cn3)cc2)C1=O [Ex. 1-405]	90	–	–

Compound	inhibition at 1 µM [1] [%]	IC50 [nM]	Percent inhibition (% at 1 μM) [1] [%]
Cc1cnc(COc2ccc(CN3CCC(O)=C(C(=O)NCC(=O)O)C3=O)cc2)s1 [Ex. 1-406]	86	–	–
O=C(O)CNC(=O)C1=C(O)CCN(Cc2ccc(OCc3cn4ccsc4n3)cc2)C1=O [Ex. 1-407]	85	–	–
Cc1ccc(Oc2ncc(CN3CCC(O)=C(C(=O)NCC(=O)O)C3=O)cn2)cc1 [Ex. 1-408]	91	72	–
Cc1cc(CN2CCC(O)=C(C(=O)NCC(=O)O)C2=O)cnc1Oc1ccc(Cl)cc1 [Ex. 1-409]	98	25	–
Cc1cc(CN2CCC(O)=C(C(=O)NCC(=O)O)C2=O)cnc1OCC(F)(F)F [Ex. 1-410]	82	–	–
Cc1cc(CN2CCC(O)=C(C(=O)NCC(=O)O)C2=O)cnc1OCCC1CC1 [Ex. 1-411]	90	–	–
O=C(O)CNC(=O)C1=C(O)CCN(C[C@H]2CC[C@H](Oc3ccc(F)cn3)CC2)C1=O [Ex. 1-412]	87	–	–
CC(C)(CN1CCC(O)=C(C(=O)NCC(=O)O)C1=O)c1ccc(Cl)cc1 [Ex. 1-413]	75	–	–
O=C(O)CNC(=O)C1=C(O)CCN(Cc2ccc(-c3ccc(C4CC4)nc3)cc2)C1=O [Ex. 1-414]	96	–	–
Cc1ccc(OCc2ccc(CN3CCC(O)=C(C(=O)NCC(=O)O)C3=O)cc2)cn1 [Ex. 1-415]	94	–	–
O=C(O)CNC(=O)C1=C(O)CCN(Cc2ccc(COc3ccccc3)cc2)C1=O [Ex. 1-416]	95	–	–
Cc1ccc(OCc2ccc(CN3CCC(O)=C(C(=O)NCC(=O)O)C3=O)cc2)cc1 [Ex. 1-417]	99	–	–
Cc1ccc(COc2ccc(CN3CCC(O)=C(C(=O)NCC(=O)O)C3=O)cn2)cc1 [Ex. 1-418]	98	–	–
O=C(O)CNC(=O)C1=C(O)CCN(Cc2ccc(OCc3ccc(Cl)cc3)nc2)C1=O [Ex. 1-419]	98	–	–
O=C(O)CNC(=O)C1=C(O)CCN(Cc2cnc(OCCC3CC3)c(Cl)c2)C1=O [Ex. 1-420]	92	–	–
COc1cccc(-c2ccc(CN3CCC(O)=C(C(=O)NCC(=O)O)C3=O)cc2)n1 [Ex. 1-421]	99	–	–
O=C(O)CNC(=O)C1=C(O)CCN(Cc2ccc(-c3ccc(Cl)cn3)cc2)C1=O [Ex. 1-422]	100	–	–
O=C(O)CNC(=O)C1=C(O)CCN(Cc2ccc(COc3ccc(C(F)(F)F)nc3)cc2)C1=O [Ex. 1-423]	96	–	–
O=C(O)CNC(=O)C1=C(O)CCN(Cc2ccc(COc3ccc(C(F)(F)F)cn3)cc2)C1=O [Ex. 1-424]	97	–	–
COc1cccnc1-c1ccc(CN2CCC(O)=C(C(=O)NCC(=O)O)C2=O)cc1 [Ex. 1-425]	90	–	–
COc1ccc(-c2ccc(CN3CCC(O)=C(C(=O)NCC(=O)O)C3=O)cc2)nc1 [Ex. 1-426]	88	–	–
O=C(O)CNC(=O)C1=C(O)CCN(CC2CCC(OCc3ccc(Cl)cc3)CC2)C1=O (stereo not drawn) [Ex. 1-427]	95	–	–
O=C(O)CNC(=O)C1=C(O)CCN(C[C@H]2CC[C@H](Oc3ccc(Cl)cc3)CC2)C1=O [Ex. 1-428]	100	–	–

Compound	inhibition at 1 µM [1] [%]	IC50 [nM]	Percent inhibition (% at 1 μM) [1] [%]
O=C(O)CNC(=O)C1=C(O)CCN(C[C@H]2CC[C@H](OCc3ccc(Cl)cc3)CC2)C1=O [Ex. 1-429]	96	–	–
Cc1ccc(O[C@H]2CC[C@H](CN3CCC(O)=C(C(=O)NCC(=O)O)C3=O)CC2)cc1 [Ex. 1-430]	95	–	–
CCc1ccc(O[C@H]2CC[C@H](CN3CCC(O)=C(C(=O)NCC(=O)O)C3=O)CC2)cc1 [Ex. 1-431]	99	–	–
O=C(O)CNC(=O)C1=C(O)CCN(C[C@H]2CC[C@H](Oc3ccc(Cl)cn3)CC2)C1=O [Ex. 1-432]	93	–	–
O=C(O)CNC(=O)C1=C(O)CCN(C[C@H]2CC[C@@H](Oc3ccc(F)cn3)CC2)C1=O [Ex. 1-433]	76	–	–
O=C(O)CNC(=O)C1=C(O)CCN(C[C@H]2CC[C@@H](Oc3ccc(F)cc3)CC2)C1=O [Ex. 1-434]	85	–	–
Cc1ccc(O[C@H]2CC[C@H](CN3CCC(O)=C(C(=O)NCC(=O)O)C3=O)CC2)nc1 [Ex. 1-435]	87	–	–
COc1ccnc(-c2ccc(CN3CCC(O)=C(C(=O)NCC(=O)O)C3=O)cc2)c1 [Ex. 1-436]	85	–	–
O=C(O)CNC(=O)C1=C(O)CCN(C[C@H]2CC[C@H](Oc3ccc(C(F)(F)F)cn3)CC2)C1=O [Ex. 1-437]	92	–	–
O=C(O)CNC(=O)C1=C(O)CCN(C[C@H]2CC[C@H](OCc3ccc(F)cc3)CC2)C1=O [Ex. 1-438]	90	–	–
O=C(O)CNC(=O)C1=C(O)CCN(C[C@H]2CC[C@H](Oc3ccccn3)CC2)C1=O [Ex. 1-439]	81	–	–
O=C(O)CNC(=O)C1=C(O)CCN(Cc2cnc(Oc3ccc(Cl)cc3)cn2)C1=O [Ex. 1-440]	98	39	–
O=C(O)CNC(=O)C1=C(O)CCN(C[C@H]2CC[C@H](Oc3ccc(C4CC4)cc3)CC2)C1=O [Ex. 1-442]	98	–	–
O=C(O)CNC(=O)C1=C(O)CCN(Cc2cnc(Oc3ccc(C4CC4)cc3)cn2)C1=O [Ex. 1-443]	101	21	–
O=C(O)CNC(=O)C1=C(O)CCN(C[C@H]2CC[C@H](OCc3ccccc3)CC2)C1=O [Ex. 1-444]	88	–	–
O=C(O)CNC(=O)C1=C(O)CCN(C[C@H]2CC[C@H](OCC3CC3)CC2)C1=O [Ex. 1-445]	75	–	–
O=C(O)CNC(=O)C1=C(O)CCN(C[C@H]2CC[C@H](Oc3ccc(C4CC4)cn3)CC2)C1=O [Ex. 1-446]	94	–	–
O=C(O)CNC(=O)C1=C(O)CCN(C[C@H]2CC[C@H](OCCc3ccccc3)CC2)C1=O [Ex. 1-447]	98	–	–
O=C(O)CNC(=O)C1=C(O)CCN(C[C@H]2CC[C@H](OCC3CCCC3)CC2)C1=O [Ex. 1-448]	92	–	–
CCc1ccc(O[C@H]2CC[C@H](CN3CCC(O)=C(C(=O)NCC(=O)O)C3=O)CC2)nc1 [Ex. 1-449]	99	–	–
Cc1ccc(CO[C@H]2CC[C@H](CN3CCC(O)=C(C(=O)NCC(=O)O)C3=O)CC2)cc1 [Ex. 1-450]	97	–	–
O=C(O)CNC(=O)C1=C(O)CCN(C[C@H]2CC[C@H](OC3CCC3)CC2)C1=O [Ex. 1-451]	82	–	–
CC(Cc1ccc(Cl)cc1)N1CCC(O)=C(C(=O)NCC(=O)O)C1=O (stereo not drawn) [Ex. 1-452]	67	–	–

— patent US9422240B2, “Partially saturated nitrogen-containing heterocyclic compound” (TAISHO PHARMACEUTICAL CO., LTD, priority 2012, dated 2016)
